pEC50, pIC50: −log10 of the molar value.
Columns and labels:
Human recombinant PDE4B2 = biological target: T1, Human recombinant PDE4B2 (Homo sapiens, UniProt Q07343); experiment: Inhibition of PDE4B4 enzyme activity (PDE Glo Assay); type: biochemical; settings: human recombinant PDE4B2, 50 nM cAMP; read-out: PDE4 IC50
T1 construct: purchased BPS Bioscience
Experimental: Biological Examples Inhibition of PDE4B4 Enzyme Activity
The inhibitory activity of test compounds were determined using the PDE Glo Assay (Promega, V1361). The PDE-Glo Reaction Buffer was prepared (1 mL 5× buffer+4 mL water) and 150 nM solution of test compound dissolved in the Reaction Buffer, followed by 1:3 serial dilutions into Reaction Buffer. […] Human recombinant PDE4B2 (BPS Bioscience) was added to test compound in Reaction Buffer at a concentration of 0.12 nM per reaction. The enzyme and test compound were pre-incubated together at rt for 10 min. 50 nM of the enzyme substrate cAMP was then added to initiate the enzyme reaction, with the reaction terminated after one hour. Termination Buffer (1 mL 5× termination buffer+3.9 mL water+100 μL of 100 mM IBMX (ICN Chemicals, in DMSO)), was added to each reaction well to terminate the reaction. Detection Buffer (1 mL 5×PDE-Glo Detection buffer+3.96 mL water+40 μL PKA (supplied in kit)) was added to the cAMP-enzyme-test compound mix and this secondary reaction proceeded for 20 minutes at rt. An equal volume of Kinase Glo Reagent was then added to the reaction mixture and after 10 min luminescence was measured using a luminometer (EnVision, 0.1 sec read for luminescence). Luminescence values were […] related to levels of cAMP in the reaction mixture. Data were plotted as relative light units (RLU) versus test compound concentration and the IC50 determined using GraphPad Prism 5.0, using a nonlinear curve fit in a single-site binding model.
IC50 determinations for the compounds presented above are seen in the first column of Table 1 (PDE4IC50).

[1] = biological target: T2, human recombinant beta-2 adrenoreceptors (Homo sapiens, UniProt P07550); experiment: Beta-2 adrenoceptor binding assay ([3H](−)CGP-12177 displacement); settings: CHO cells expressing human beta-2 adrenoreceptors, [3H](−)CGP-12177 0.3 nM, 120 min
T2 construct: expressed in transfected cells; host or cells: CHO cells
T2 sequence (P07550 whole entry): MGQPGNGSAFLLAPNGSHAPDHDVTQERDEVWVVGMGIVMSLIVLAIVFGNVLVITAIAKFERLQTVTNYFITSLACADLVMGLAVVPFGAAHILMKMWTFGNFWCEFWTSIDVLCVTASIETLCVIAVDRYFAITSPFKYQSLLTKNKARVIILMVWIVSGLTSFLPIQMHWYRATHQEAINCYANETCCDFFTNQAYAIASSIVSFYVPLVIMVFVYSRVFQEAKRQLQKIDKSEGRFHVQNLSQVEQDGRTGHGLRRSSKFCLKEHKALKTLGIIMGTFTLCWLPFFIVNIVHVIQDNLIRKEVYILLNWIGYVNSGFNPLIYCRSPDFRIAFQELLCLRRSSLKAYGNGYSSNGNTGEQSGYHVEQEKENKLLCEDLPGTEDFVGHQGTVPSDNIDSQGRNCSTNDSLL
Experimental: Beta-2 Adrenoceptor Binding Assay
Test compounds were incubated for 120 min with Chinese hamster oocyte (CHO) cells expressing the human recombinant beta-2 adrenoreceptors. Binding of test compounds to the beta-2 adrenoreceptors was determined by measuring the displacement of the radiolabeled ligand [^3H](−)CGP-12177 (0.3 nM) from the receptor measured by a scintillation counting. Concentration response curves were generated for test compounds and the IC50 (molar concentration of the compound which produced 50% inhibition for the maximal response for that compound) was determined. These assays were performed using a protocol based on the original description of the assay by Joseph et al., (2004) Naun.-Sch. Arch. Pharm.; 369:525-532.
IC50 determinations for the compounds presented above are seen in the second column of Table 1 (Beta 2 IC50).

[2] = biological target: T2, human recombinant beta-2 adrenoreceptors; experiment: Functional agonism of human recombinant beta-2 adrenoreceptors expressed in CHO cells (cAMP HTRF); type: cell-based; settings: CHO cells expressing human beta-2 adrenoreceptors, cAMP elevation, 30 min
Experimental: Functional Agonism of Human Recombinant Beta-2 Adrenoreceptors Expressed in Chinese Hamster Oocytes (CHO)
Test compounds were incubated for 30 min with CHO cells expressing the human recombinant beta-2 adrenoreceptors. Agonism of the receptor was measured by the elevation of intracellular cyclic-AMP over control levels detected using a homogeneous time resolved fluorescence (HTRF) format. Compounds were determined to be “full” or “partial” agonists based on the maximum level of cAMP accumulated compared to the control compound isoproterenol which is a full agonist in this assay system. Concentration response curves were generated for test compounds and the EC50 (molar concentration of the agonist which produced 50% of the maximal response for that compound) was determined. These assays were performed using a protocol based on the original description of the assay by Baker, J. G. (2005) Brit. J. Pharmacol.; 144:317-322.
EC50 determinations for the compounds presented above are seen in the third column of Table 1 (Beta 2 EC50).

[3] = test system: LPS-induced TNF-α release from human peripheral blood mononuclear cells (PBMC); experiment: Inhibition of LPS-induced TNF-α release from human PBMC; type: cell-based; settings: LPS 0.4 ng/mL, 6 h, presence or absence of ICI-118551 not given
Text: Inhibition of Lipopolysaccharide (LPS)-Induced Tumour Necrosis Factor Alpha (TNF-α) Release from Human Peripheral Blood Mononuclear Cells (PBMC)
Human whole blood was drawn from donors and cell purification initiated within two hours. Peripheral blood mononuclear cells (PBMC) were purified using a standard Ficoll gradient purification technique and aliquoted at a concentration of 100,000 cells/well in 96 well plates. Beta-2 adrenoreceptor agonists are also anti-inflammatory for some immune cells expressing the receptor and in this assay they can inhibit tumor necrosis factor-alpha (TNF-α) production. Therefore PBMC were pre-incubated for 30 min in the presence of the beta-2 adrenoreceptor antagonist ICI-118551 [3-(isopropylamino)-1-[(7-methyl-4-indanyl)oxy]butan-2-ol] (10 μM) to determine the PDE4 directed activity of test compounds, and in the absence of ICI-118551 for the combined PDE4 and beta-2 receptor directed activity. Test compounds were dissolved in DMSO and diluted in buffer (final DMSO concentration of 0.1% v/v) and were then added to the cell suspensions and pre-incubated for a further 1 h at 37° C. LPS solution was then added (0.4 ng/mL) and the cells incubated for a further 6 h. At the end of the incubation period the cell supernatants were collected and TNF-α was measured using a Procarta Cytokine Assay Kit (Affymetrix, Santa Clara, Calif.) according to the manufacturers' instructions. Data were analyzed using MiraiBio Masterplex QT v4.0 software (MasterPlex Version 1.0.1.18 Copyright 2008, Hitachi Software Engineering Co., Ltd) and used to extrapolate Mean Fluorescence Intensity (MFI) into concentrations of TNF-α and mean values from replicate wells were determined. Inhibition curves were plotted using a nonlinear curve fit employing a single-site binding model to determine the IC50 value for each test compound in the presence or absence of ICI-118551 using GraphPad Prism 5 for Windows, version 5.02 (GraphPad Software, San Diego Calif.).
EC50 determinations for the compounds presented above are seen in the fourth column of Table 1 (PBMC TNF EC50).

T1 sequence (Q07343 1-564 isoform Q07343-2): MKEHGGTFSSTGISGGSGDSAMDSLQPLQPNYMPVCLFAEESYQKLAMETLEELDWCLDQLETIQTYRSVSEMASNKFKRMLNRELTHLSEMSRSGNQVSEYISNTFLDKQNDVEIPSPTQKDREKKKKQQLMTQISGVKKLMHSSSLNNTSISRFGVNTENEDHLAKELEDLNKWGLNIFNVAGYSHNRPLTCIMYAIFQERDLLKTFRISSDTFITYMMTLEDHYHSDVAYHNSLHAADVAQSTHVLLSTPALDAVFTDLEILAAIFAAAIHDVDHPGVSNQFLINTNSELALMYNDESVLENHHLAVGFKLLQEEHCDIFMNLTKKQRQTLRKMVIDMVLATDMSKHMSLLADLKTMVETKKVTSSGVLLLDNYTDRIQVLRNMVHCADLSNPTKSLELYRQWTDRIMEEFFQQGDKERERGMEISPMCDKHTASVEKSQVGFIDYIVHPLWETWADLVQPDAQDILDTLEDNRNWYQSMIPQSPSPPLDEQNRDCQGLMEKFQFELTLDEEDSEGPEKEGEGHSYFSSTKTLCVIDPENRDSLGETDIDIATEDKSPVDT

| pIC50 (Human recombinant PDE4B2) | pIC50 [1] | pEC50 [2] | Compound | pEC50 [3] |
| --- | --- | --- | --- | --- |
| > 7.00 | < 6.52 | < 6.52 | COc1cccc(Nc2c(C(N)=O)cnc3c(C)cc(S(=O)(=O)c4cccc(-c5ccc(CNC[C@H](O)c6ccc(O)c7[nH]c(=O)ccc67)cc5)c4)cc23)c1 [Example 47, (R)-6-((4′-(((2-hydroxy-2-(8-hydroxy-2-oxo-1,2-dihydroquinolin-5-yl)ethyl)amino)methyl)-[1,1′-biphenyl]-3-yl)sulfonyl)-4-((3-methoxyphenyl)amino)-8-methylquinoline-3-carboxamide] | > 7.00 |
| > 7.00 | > 7.00 | > 7.00 | COc1cccc(Nc2c(C(N)=O)cnc3c(C)cc(S(=O)(=O)c4cccc(C(=O)NCCCCCCNC[C@H](O)c5ccc(O)c6[nH]c(=O)ccc56)c4)cc23)c1 [Example 2, (R)-6-[[3-[[6-[[2-Hydroxy-2-(8-hydroxy-2-oxo-1,2-dihydroquinolin-5-yl)ethyl]amino]hexyl]carbamoyl]phenyl]sulfonyl]-4-((3-methoxyphenyl)amino]-8-methylquinoline-3-carboxamide] | > 7.00 |
| > 7.00 | > 7.00 | > 7.00 | COc1cccc(Nc2c(C(N)=O)cnc3c(C)cc(S(=O)(=O)c4cccc(C(=O)Nc5ccc(-c6ccc(CNC[C@H](O)c7ccc(O)c8[nH]c(=O)ccc78)cc6)cc5)c4)cc23)c1 [Example 20, (R)-6-((3-((4′-(((2-hydroxy-2-(8-hydroxy-2-oxo-1,2-dihydroquinolin-5-yl)ethyl)amino)methyl)-[1,1′-biphenyl]-4-yl)carbamoyl)phenyl)sulfonyl)-4-((3-methoxyphenyl)amino)-8-methylquinoline-3-carboxamide] | > 7.00 |
| > 7.00 | > 7.00 | > 7.00 | COc1cccc(Nc2c(C(N)=O)cnc3c(C)cc(S(=O)(=O)c4cccc(C(=O)Nc5ccc(C#CCCCNC[C@H](O)c6ccc(O)c7c6OCC(=O)N7)cc5)c4)cc23)c1 [Example 32, (R)-6-((3-((4-(5-((2-hydroxy-2-(5-hydroxy-3-oxo-3,4-dihydro-2H-benzo[b][1,4]oxazin-8-yl)ethyl)amino)pent-1-yn-1-yl)phenyl)carbamoyl)phenyl)sulfonyl)-4-((3-methoxyphenyl)amino)-8-methylquinoline-3-carboxamide] | > 7.00 |

Further lines, the compound ahead of its results:

| Compound | pIC50 (Human recombinant PDE4B2) | pIC50 [1] | pEC50 [2] | pEC50 [3] |
| --- | --- | --- | --- | --- |
| COc1cccc(Nc2c(C(N)=O)cnc3c(C)cc(S(=O)(=O)c4cccc(C(=O)N5CCN(CCCCCCNC[C@H](O)c6ccc(O)c7[nH]c(=O)ccc67)CC5)c4)cc23)c1 [Example 16, (R)-6-((3-(4-(6-((2-hydroxy-2-(8-hydroxy-2-oxo-1,2-dihydroquinolin-5-yl)ethyl)amino)hexyl)piperazine-1-carbonyl)phenyl)sulfonyl)-4-((3-methoxyphenyl)amino)-8-methylquinoline-3-carboxamide] | > 7.00 | < 6.52 | > 6.52 | > 7.00 |
| COc1cccc(Nc2c(C(N)=O)cnc3c(C)cc(S(=O)(=O)c4cccc(C(=O)Nc5ccc(C6(CCCCNC[C@H](O)c7ccc(O)c8[nH]c(=O)ccc78)SCCS6)cc5)c4)cc23)c1 [Example 37, (R)-6-((3-((4-(2-(4-((2-hydroxy-2-(8-hydroxy-2-oxo-1,2-dihydroquinolin-5-yl)ethyl)amino)butyl)-1,3-dithiolan-2-yl)phenyl)carbamoyl)phenyl)sulfonyl)-4-((3-methoxyphenyl)amino)-8-methylquinoline-3-carboxamide] | > 7.00 | > 7.00 | > 7.00 | > 7.00 |
| COc1cccc(Nc2c(C(N)=O)cnc3c(C)cc(S(=O)(=O)c4cccc(C(=O)N5CCN(CCNC[C@H](O)c6ccc(O)c7[nH]c(=O)ccc67)CC5)c4)cc23)c1 [Example 11, 6-[3-[[4-[2-[[2-Hydroxy-2-(8-hydroxy-2-oxo-1,2-dihydroquinolin-5-yl)ethyl]amino]ethyl]piperazine-1-yl]carbonyl]benzenesulfonyl]-4-(3-methoxyphenylamino)-8-methylquinoline-3-carboxyamide] | > 7.00 | > 7.00 | > 7.00 | > 7.00 |
